The values below come from paper PMC9231089, “Sorafenib Chemosensitization by Caryophyllane Sesquiterpenes in Liver, Biliary, and Pancreatic Cancer Cells: The Role of STAT3/ABC Transporter Axis” (Pharmaceutics, 2022).

The structures appear in SMILES notation. Structures can show the parent of a compound that is named as a salt. Some results are limits rather than exact numbers.

In data set [1] the test system is HepG2. The experiment in a line: Combination assay with sorafenib (MTT), HepG2.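 As to increase of sorafenib cytotoxicity in combination: percent increase of sorafenib cell viability inhibition versus sorafenib alone.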 In kind it is cell-based, human. The following applies: for increase of sorafenib cytotoxicity in combination: verapamil/MK571 1 µg/mL or sesquiterpenes 10 µg/mL. The method, then:
(§1) Suitable vehicle controls were also included.
(§2) The type of interaction (synergistic, additive, or antagonistic) among sorafenib and test substances or positive controls was evaluated by measuring the reversal ratio value (RR), combination index (CI), and isobolographic analysis (IB), as previously described.

The next data set deals with phospho(Tyr705)-STAT3. The experiment in a line: Western blotting of STAT3 phosphorylation in Bx-PC3 cells. Particulars: for increase of STAT3 phosphorylation at tyrosine 705: substance alone, sorafenib and sesquiterpenes 10 μg/mL, verapamil/MK571 1 μg/mL, normalized to total STAT3; for reduction of phospho(Tyr705)-STAT3 with respect to sorafenib: substance in combination with sorafenib 10 μg/mL. Type of data set: cell-based, human. The method, then:
as §1
Confluent cells were seeded in 6-well plates (5 × 10^5 cells/well), treated as described above, then harvested by centrifugation and washed in PBS. After lysis with a suitable buffer, the Western blotting analysis was carried out, according to previously published methods. […] The levels of phospho(Tyr705)-STAT3 were normalized against total STAT3 ones.
(Immunoblotting shows a protein as a band on a membrane.)

For data set [2], the system named is Mz-ChA-1. The experiment in a line: Combination assay with sorafenib (MTT), Mz-ChA-1.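 As to increase of sorafenib cytotoxicity in combination: percent increase of sorafenib cell viability inhibition versus sorafenib alone.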 In kind it is cell-based, human. The method, then:
as §1, §2

The test system of data set [3] is Bx-PC3. The data set can be described thus: Combination assay with sorafenib (MTT), Bx-PC3.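 As to increase of sorafenib cytotoxicity in combination: percent increase of sorafenib cell viability inhibition versus sorafenib alone.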 In kind it is cell-based, human. The method, then:
as §1, §2

For a further data set, the system named is Bx-PC3 cells. The experiment in a line: Wound healing assay (cell migration). Type of data set: cell-based, human. The following applies: for increase of wound area: substance in combination with sorafenib 10 µg/mL, reference and time not stated. The method, then:
To evaluate the effect of caryophyllane sesquiterpenes, both alone and in combination with sorafenib, on the cell migration rate, the wound healing assay was performed. Bx-PC3 cells were seeded in 24-well plate at a density of 2.5 × 10^5 cells/well. After 24 h, the wound was created by scratching the well bottom with a 100 μL pipette tip, then the cells were treated under the scheduled conditions and images were captured at 0, 4, and 72 h using a Cytation 1 Cell Imaging Multi-Mode Reader. […] Results were expressed as wound area percentage with respect to that of the same well at zero time. The positive controls were also included.

Data set [4] has as its system HepG2. The data set can be described thus: MTT cytotoxicity assay, substances alone, HepG2. Type of data set: cell-based, human. Particulars: HepG2. The method, then:
as §1
(§3) The effect of the treatments on cell viability was measured by the MTT assay as previously described. A higher than 30% reduction of cell viability was considered as a significant cytotoxic effect.
On the technique in general: Tetrazolium assays rely on reduction of a dye to a coloured formazan, in cell work by metabolically active cells.

For data set [5], the system named is MRP1/2. The data set can be described thus: ABC-mediated drug efflux assay, calcein-AM accumulation, Mz-ChA-1 cells. In kind it is cell-based, human. The following applies: 2 h pre-treatment, sesquiterpenes 10 μg/mL, vs control.
Description: (§5) Fluorescence was measured at excitation and emission wavelengths of 485 nm and 535 nm for both probes, using a Cytation 1 Cell Imaging Multimode Reader (Biotech, Santa Clara, CA, USA). Results were normalized to viable cells and expressed as percentage of the negative control.
Data set [6] relates to noncancerous H69 cholangiocytes. The experiment in a line: MTT cytotoxicity assay (tolerability), substances alone, H69. In kind it is cell-based, human. Particulars: Homo sapiens; H69 noncancerous cholangiocytes; substance alone; 4 h exposure + 72 h recovery; read-out: IC50 (CL). The method, then: as §1, §3
Data set [7] deals with Mz-ChA-1. The experiment in a line: MTT cytotoxicity assay, substances alone, Mz-ChA-1. In kind it is cell-based, human. Particulars: Mz-ChA-1. The method, then: as §1, §3
Another data set relates to MDR1. The data set can be described thus: RT-qPCR gene expression in Bx-PC3 cells, MDR1. In general terms: In qPCR the cycle at which signal appears reflects the starting amount.
For data set [8], the system named is Bx-PC3. The data set can be described thus: MTT cytotoxicity assay, substances alone, Bx-PC3. Type of data set: cell-based, human. The method, then: as §1, §3
The subject of data set [9] is MRP1/2. The experiment in a line: ABC-mediated drug efflux assay, calcein-AM accumulation, HepG2 cells. Type of data set: cell-based, human. The following applies: 2 h pre-treatment, sesquiterpenes 10 μg/mL, vs control.
Description: as §5
For data set [10], the system named is noncancerous H69 cholangiocytes. The experiment in a line: Combination assay with sorafenib (MTT), tolerability in H69. In kind it is cell-based, human. The following applies: sesquiterpene 10 μg/mL combined with sorafenib (protective effect at sorafenib 10 μg/mL). The protocol:
as §1, §2

In data set [11] the test system is MRP2. The data set can be described thus: RT-qPCR gene expression in Bx-PC3 cells, MRP2. Particulars: substance in combination with sorafenib, given for MRP1 and MRP2 together.
Description: (§6) Confluent cells were treated with the test substances, both alone or in combination with the anticancer drug, for 4 h, then washed and incubated for a further 72 h (Figure 1), according to previously published protocols [20]. […] Suitable vehicle controls were also included.
(§7) The results of mRNA abundance for the targeted genes in each sample were normalized on the basis of GAPDH (Bio-Rad, Hercules, CA, USA) mRNA. Data are expressed as 2^−ΔCt, calculated using the CFX Manager software (Bio-Rad).
Data set [12] has as its system MRP2. The experiment in a line: Immunofluorescence analysis in Bx-PC3 cells, MRP2. In kind it is cell-based, human. The protocol: as §1
(§4) The analysis was performed according to previously published methods. Confluent cells were seeded in 24-well plates (2 × 10^4 cells/well), allowed to adhere overnight, then treated as described above. After treatment, cells were fixed in pure methanol and washed with 4% bovine serum albumin (BSA) and PBS + Tween 20 (PBS-T) for 1 h. […] The expression and localization of Pgp, MRP1, and MRP2 pumps into cells were analyzed by using a Cytation 1 Cell Imaging Multimode Reader (Biotech, USA).

Data set [13] relates to MRP1. The data set can be described thus: Immunofluorescence analysis in Bx-PC3 cells, MRP1. The following applies: substance 10 µg/mL in combination with sorafenib 10 µg/mL. Type of data set: cell-based, human. The protocol: as §1, §4
On the set-up of data set [14]: method as in PMID 33081075. The following applies: European Food Safety Authority; cited from earlier work.
Data set [15] relates to MRP1/2. The data set can be described thus: ABC-mediated drug efflux assay, calcein-AM accumulation, Bx-PC3 cells. In kind it is cell-based, human. The following applies: 2 h pre-treatment, sesquiterpenes 10 μg/mL, MK571 1 μg/mL, vs control.
Description: as §5
In data set [16] the test system is MRP1. The experiment in a line: RT-qPCR gene expression in Bx-PC3 cells, MRP1. Type of data set: cell-based, human. The following applies: substance in combination with sorafenib, given for MRP1 and MRP2 together.
Source text: as §1

A further data set has as its system Pgp. The data set can be described thus: Immunofluorescence analysis in Bx-PC3 cells, Pgp. Type of data set: cell-based, human. The protocol:
as §1, §4

Description for MDR1: as §6, §7

Turning to `COc1ccc(CCN(C)CCCC(C#N)(c2ccc(OC)c(OC)c2)C(C)C)cc1OC` (centres unmarked) [Verapamil, verapamil hydrochloride, reference compound], the “reduction of sorafenib IC50 in the presence of the substance” value with HepG2 [1] is given as “approximately 3 fold”; with Mz-ChA-1 [2], 1.5 fold; in the data set on Bx-PC3 [3], around 2 fold. Besides, the “increase of STAT3 phosphorylation at tyrosine 705” value with phospho(Tyr705)-STAT3 was 1.1 fold. Besides, the “reduction of phospho(Tyr705)-STAT3 with respect to sorafenib” value in the data set with phospho(Tyr705)-STAT3 is recorded as “lower reduction”. Further, the “increase of wound area” value with Bx-PC3 cells is listed as “lowered the anti-migration effect of sorafenib”.
What is called IC50 is the concentration needed to halve the response being measured. Take `C=C1CC/C=C(\C)CC[C@@H]2[C@@H]1CC2(C)C` [β-Caryophyllene, β-caryophyllene]: the entries for the “IC50 higher than that of sorafenib” value in the data set on HepG2 [4] and in the data set on Bx-PC3 [8] were 1.6 fold and “comparable”, respectively. The “increase of calcein-AM accumulation” value in the data set on MRP1/2 [5] is 1.3 fold; in the data set on MRP1/2 [9] it was 1.2 fold; in the data set on MRP1/2 [15], 1.9 fold. The “reduction of sorafenib IC50 in the presence of the substance” value is on record as “approximately 2.9 fold” in the data set with HepG2 [1], “approximately 1.7 fold” in the data set with Mz-ChA-1 [2] and 5 fold in the data set with Bx-PC3 [3]. The “combination index (CI) with sorafenib” value is on record as 0.47 with HepG2 [1] (CI lower than 1 = synergistic), 0.74 in the data set on Mz-ChA-1 [2] (CI lower than 1 = synergistic) and 0.46 in the data set with Bx-PC3 [3] (CI lower than 1 = synergistic). Besides, the “increase of sorafenib cytotoxicity in combination” value in the data set on HepG2 [1] (sorafenib 1 µg/mL) is 5%; in the data set with HepG2 [1] (sorafenib 10 µg/mL), “approximately 33%”; in the data set on Mz-ChA-1 [2] (sorafenib 10 µg/mL, verapamil/MK571 1 µg/mL or sesquiterpenes 10 µg/mL) it was 19%; in the data set on Mz-ChA-1 [2] (sorafenib 50 µg/mL, sesquiterpenes 10 µg/mL), 17%; with Bx-PC3 [3] (sesquiterpenes 10 µg/mL, sorafenib concentration not stated (Figure 3F)), 56%. In addition, the CC50 in data set [6] came out at 67 µg/mL. Moreover, the IC50 in the data set with Mz-ChA-1 [7] (Homo sapiens, substance alone, 4 h exposure + 72 h recovery) amounted to 62.7 µg/mL; in the data set with Bx-PC3 [8] (Homo sapiens, BXPC-3, substance alone, 4 h exposure + 72 h recovery), 36.3 µg/mL. For the same compound, in the data set on Mz-ChA-1 [7], the “IC50 lower with respect to sorafenib” value was “approximately 1.2 fold”. For the same compound, the “higher cytotoxicity with respect to β-caryophyllene oxide” value in the data set on Mz-ChA-1 [7] is reported as “approximately 1.5 fold”; with Bx-PC3 [8] it was around 1.8 fold. Also, the “inhibition of cell viability” value in the data set with Mz-ChA-1 [7] (50 µg/mL) worked out at 35%; with Mz-ChA-1 [7] (250 µg/mL) it was 96%; in the data set with Bx-PC3 [8] (50 µg/mL) it was 70%; in the data set on Bx-PC3 [8] (250 µg/mL), 95%. The “increase of MDR1 gene expression with respect to control” value with MDR1 (substance alone, 4 h exposure + 72 h recovery) is listed as 2.7 fold. Further, the “downregulation of MDR1 gene with respect to sorafenib alone” value in the data set on MDR1 (substance in combination with sorafenib) amounted to 1.9 fold. For the same compound, in the data set on phospho(Tyr705)-STAT3, the “increase of STAT3 phosphorylation at tyrosine 705” value is “approximately 3 fold”. In the data set on phospho(Tyr705)-STAT3, the “reduction of phospho(Tyr705)-STAT3 with respect to sorafenib” value is 2.1 fold. In data set [10], the “effect on sorafenib cytotoxicity in noncancerous cells” value is “slight protective effects”. The “reduction of MRP2 gene expression” value with MRP2 [11] came out at 4 fold. The “wound area / cell migration after 72 h” value in the data set with Bx-PC3 cells (substance alone, sesquiterpenes 10 µg/mL, verapamil/MK571 1 µg/mL) was “almost complete closure of wound area”. Further, the “increase of wound area” value with Bx-PC3 cells is around 4.1 fold. Further, the “reduction of MRP2 expression with respect to sorafenib” value in the data set with MRP2 [12] (substance 10 µg/mL in combination with sorafenib 10 µg/mL) came to 1.3 fold. The “increase of MRP2 expression (immunofluorescence)” value in the data set on MRP2 [12] (substance alone, 10 µg/mL) came to 1.4 fold. In addition, the “reduction of MRP1 expression with respect to sorafenib” value in the data set with MRP1 [13] turned out to be 1.8 fold. Also, in data set [14], the “considered safe up to (approved as flavoring)” value is at most 222 mg/kg/die. Further, the “reduction of MRP1 gene expression” value with MRP1 [16] worked out at 4 fold. Besides, the “effect on Pgp expression (immunofluorescence)” value in the data set on Pgp (substance alone, sorafenib and sesquiterpenes 10 µg/mL, verapamil 1 µg/mL) was “did not affect”. The “reduction of Pgp expression compared to control” value with Pgp (substance in combination with sorafenib 10 μg/mL) is around 1.9 fold.
